Experimental data published in publication PMC6153936, “Bisarylureas Based on 1H-Pyrazolo[3,4-d]pyrimidine Scaffold as Novel Pan-RAF Inhibitors with Potent Anti-Proliferative Activities: Structure-Based Design, Synthesis, Biological Evaluation and Molecular Modelling Studies” (Molecules : A Journal of Synthetic Chemistry and Natural …, 2017).

Tests used:
in vitro = settings: dog
Experimental: (§1) All cell lines were purchased from Cell Bank of China Science Academy (Shanghai, China). All chemicals and solvents were purchased from Sigma-Aldrich (St. Louis, MO, USA) or Gibco (Gibco BRL, Grand Island, NY, USA). The PC-3 and A375 cell lines was maintained in Dulbecco's modified eagle (DEME) medium supplement with 10% fetal bovine serum (FBS) and 1% penicillin–streptomycin. The others were cultured in Roswell Park Memorial Institute (RPMI) 1640 medium supplement with 10% fetal bovine serum (FBS) and 1% penicillin–streptomycin. Approximately 5 × 10^3 cells, suspended in medium, were plated into each well of a 96-well plate and grown at 37 °C in a humidified atmosphere with 5% CO2 for 24 h. The following day, various concentrations of tested compounds were added to the culture medium and incubated for 48 h. Fresh MTT was added to each well at the terminal concentration of 5 mg/mL in phosphate buffered saline (PBS), and incubated with cells at 37 °C for 4 h. The formazan crystals in each well were dissolved in 150 μL DMSO, and the absorbency at 570 nm was measured with an enzyme-linked immunosorbent assay plate reader. All of the compounds were tested three times in each of the cell lines.

HT-29 = assay: MTT anti-proliferative assay, HT-29; type: cell-based; settings: Homo sapiens, 48 h
Experimental: as §1

A375 = assay: MTT anti-proliferative assay, A375; type: cell-based; settings: Homo sapiens, A-375, 48 h
Experimental: as §1

A549 = assay: MTT anti-proliferative assay, A549; type: cell-based, human; settings: for IC50: Homo sapiens, A549, MTT, 48 h
Experimental: as §1

PC-3 = assay: MTT anti-proliferative assay, PC-3; type: cell-based, human; settings: for IC50: Homo sapiens, PC-3, MTT, 48 h; for fold improvement in activity compared to Sorafenib, PC-3: PC-3, IC50 ratio to Sorafenib
Experimental: as §1

BRAF^V600E = target: T1, BRAF^V600E (Homo sapiens, UniProt P15056, V600E); assay: BRAF^V600E kinase inhibition, Z'-LYTE; type: biochemical; settings: for inhibition at 0.1 µM: 100 nM; for IC50: ten concentrations 1000 to 0.0508 nM, two independent experiments
T1 construct: purchased Life Technologies
T1 sequence (P15056 whole entry V600E): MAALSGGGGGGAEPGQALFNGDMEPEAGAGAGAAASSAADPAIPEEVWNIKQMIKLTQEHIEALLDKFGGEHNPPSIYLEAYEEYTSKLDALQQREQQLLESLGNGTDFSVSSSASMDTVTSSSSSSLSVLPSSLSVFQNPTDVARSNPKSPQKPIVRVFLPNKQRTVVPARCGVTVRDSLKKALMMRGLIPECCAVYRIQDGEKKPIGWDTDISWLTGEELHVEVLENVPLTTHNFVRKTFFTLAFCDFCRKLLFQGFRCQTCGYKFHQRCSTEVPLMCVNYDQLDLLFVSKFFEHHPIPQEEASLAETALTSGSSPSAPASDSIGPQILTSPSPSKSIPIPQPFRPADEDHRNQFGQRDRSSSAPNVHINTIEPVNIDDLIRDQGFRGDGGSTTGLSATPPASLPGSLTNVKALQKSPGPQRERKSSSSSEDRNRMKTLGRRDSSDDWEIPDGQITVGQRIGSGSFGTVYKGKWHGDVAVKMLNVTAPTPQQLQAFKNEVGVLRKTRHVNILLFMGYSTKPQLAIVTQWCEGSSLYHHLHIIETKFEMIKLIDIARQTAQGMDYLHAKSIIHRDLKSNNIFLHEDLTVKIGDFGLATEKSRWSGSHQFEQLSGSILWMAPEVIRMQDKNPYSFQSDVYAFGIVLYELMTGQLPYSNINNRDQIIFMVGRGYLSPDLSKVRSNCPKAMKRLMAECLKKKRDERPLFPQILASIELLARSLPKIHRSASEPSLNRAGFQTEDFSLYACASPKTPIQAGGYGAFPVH
Experimental: The experiments were performed according to the instructions of the manufacturer, and single point concentration testing with two independent data points (n = 2). […] The IC50 values were calculated from the inhibition curves from two separate experiments.

[1] = MTT cytotoxic assay, normal cell line MDCK; settings: dog, MDCK cells (normal cell line)
Experimental: as §1

[2] = average of two independent experiments
[3] = 1000 nM, average of two independent experiments

IC50 at 48 h (in vitro) [µM] | IC50 (HT-29) [µM] | IC50 (A375) [µM] | IC50 (A549) [µM] | IC50 (PC-3) [µM] | inhibition at 0.1 µM (BRAF^V600E; [2]) [%] | inhibition at 1 µM (BRAF^V600E; [3]) [%] | melting point [°C] | BRAF^V600E (%) inhibition at 1000 nM (BRAF^V600E; [3]) | IC50 (BRAF^V600E) [nM] | Structure (SMILES) | IC50 at 48 h [1] [µM] | fold improvement compared to Sorafenib, A549 (A549; A549, IC50 ratio to Sorafenib) [fold] | fold improvement in activity compared to Sorafenib, PC-3 (PC-3) [fold]
17.8 | > 80 | 29.3 | 19.8 | 19.5 | 37 | 90 |  |  |  | O=C(Nc1ccc(Oc2ncnc3[nH]ncc23)cc1)Nc1ccc(Cl)c(C(F)(F)F)c1 [Compound 1a, 1-(4-((1H-Pyrazolo[3,4-d]pyrimidin-4-yl)oxy)phenyl)-3-(4-chloro-3-(trifluoromet-hyl)phenyl)urea] |  |  | 
 | > 80 | > 80 | 75.6 | > 80 |  | 46 | 227.4 to 230 |  |  | Cc1cccc(NC(=O)Nc2ccc(Oc3ncnc4[nH]ncc34)cc2)c1 [Compound 1b, 1-(4-((1H-Pyrazolo[3,4-d]pyrimidin-4-yl)oxy)phenyl)-3-(m-tolyl)urea] | > 80 |  | 
 | 15.2 | 29.7 | 16.2 | 11.2 | 27 | 83 | 245 to 247.2 |  |  | O=C(Nc1ccc(Oc2ncnc3[nH]ncc23)cc1)Nc1ccc(Cl)c(Cl)c1 [Compound 1c, 1-(4-((1H-Pyrazolo[3,4-d]pyrimidin-4-yl)oxy)phenyl)-3-(3,4-dichlorophenyl)urea] | 35.5 |  | 
 | > 80 | 78.8 | > 80 | 18.4 |  | 51 |  |  |  | O=C(Nc1ccc(Cl)cc1)Nc1ccc(Oc2ncnc3[nH]ncc23)cc1 [Compound 1d, 1-(4-((1H-Pyrazolo[3,4-d]pyrimidin-4-yl)oxy)phenyl)-3-(4-chlorophenyl)urea] | > 80 |  | 
> 80 | > 80 | > 80 | > 80 | > 80 |  | 1 | 247.3 to 249.2 | no inhibitory activity |  | O=C(Nc1ccccc1)Nc1ccc(Oc2ncnc3[nH]ncc23)cc1 [Compound 1e, 1-(4-((1H-Pyrazolo[3,4-d]pyrimidin-4-yl)oxy)phenyl)-3-phenylurea] |  |  | 
 | > 80 | > 80 | 70.1 | > 80 |  | 54 | 234.8 to 236 |  |  | O=C(Nc1ccc(Oc2ncnc3[nH]ncc23)cc1)Nc1cccc(Cl)c1 [Compound 1g, 1-(4-((1H-Pyrazolo[3,4-d]pyrimidin-4-yl)oxy)phenyl)-3-(3-chlorophenyl)urea] | > 80 |  | 
> 80 | > 80 | > 80 | > 80 | 11.7 |  | 27 | 250.4 to 252.3 |  |  | Cc1cccc(NC(=O)Nc2ccc(Oc3ncnc4[nH]ncc34)cc2)c1C [Compound 1h, 1-(4-((1H-Pyrazolo[3,4-d]pyrimidin-4-yl)oxy)phenyl)-3-(2,3-dimethylphenyl)urea] |  |  | 
 | 50.7 | 30.4 | 60.3 | 46 | 37 | 67 | 249.2 to 250.6 |  |  | O=C(Nc1ccc(Oc2ncnc3[nH]ncc23)cc1)Nc1cc(F)cc(C(F)(F)F)c1 [Compound 1j, 1-(4-((1H-Pyrazolo[3,4-d]pyrimidin-4-yl)oxy)phenyl)-3-(3-fluoro-5-(trifluoromethyl)phenyl)urea] | > 80 |  | 
 | 71.2 | 75.6 | 19.9 | > 80 | 60 | 69 | 219.5 to 221.5 |  | 51.3 | CCc1cccc(NC(=O)Nc2ccc(Oc3ncnc4[nH]ncc34)cc2)c1 [Compound 1l, 1-(4-((1H-Pyrazolo[3,4-d]pyrimidin-4-yl)oxy)phenyl)-3-(3-ethylphenyl)urea] | > 80 |  | 
 | 31.7 | 64 | > 80 | 23.4 | 3 | 62 | 229.2 to 231.4 |  |  | O=C(Nc1ccc(Oc2ncnc3[nH]ncc23)cc1)Nc1cccc([N+](=O)[O-])c1 [Compound 1m, 1-(4-((1H-Pyrazolo[3,4-d]pyrimidin-4-yl)oxy)phenyl)-3-(3-nitrophenyl)urea] | > 80 |  | 
 | 27.8 | 5.39 | 32.1 | 40.3 | 30 | 87 |  |  |  | O=C(Nc1ccc(Oc2ncnc3[nH]ncc23)cc1)Nc1cc(C(F)(F)F)ccc1F [Compound 1n, 1-(4-((1H-Pyrazolo[3,4-d]pyrimidin-4-yl)oxy)phenyl)-3-(2-fluoro-5-(trifluoromethyl)phenyl)urea] | 23.1 |  | 
 | > 80 | > 80 | 30 | 5.34 | 29 | 69 | 227.3 to 228.4 |  |  | CSc1cccc(NC(=O)Nc2ccc(Oc3ncnc4[nH]ncc34)cc2)c1 [Compound 1o, 1-(4-((1H-Pyrazolo[3,4-d]pyrimidin-4-yl)oxy)phenyl)-3-(3-(methylthio)phenyl)urea] | > 80 |  | 
 | 39.4 | 61.8 | 59.5 | 30.9 |  | 48 | 235.2 to 237.4 |  |  | N#Cc1cccc(NC(=O)Nc2ccc(Oc3ncnc4[nH]ncc34)cc2)c1 [Compound 1p, 1-(4-((1H-Pyrazolo[3,4-d]pyrimidin-4-yl)oxy)phenyl)-3-(3-cyanophenyl)urea] | > 80 |  | 
 | > 80 | > 80 | > 80 | 22.5 |  | 32 | 217.3 to 220.1 |  |  | COC(=O)c1cccc(NC(=O)Nc2ccc(Oc3ncnc4[nH]ncc34)cc2)c1 [Compound 1q, Methyl-3-(3-(4-((1H-pyrazolo[3,4-d]pyrimidin-4-yl)oxy)phenyl)ureido)benzoate] | > 80 |  | 
 | > 80 | > 80 | > 80 | > 80 |  | 22 | 359.7 to 360.2 |  |  | Cc1ccc([N+](=O)[O-])c(NC(=O)Nc2ccc(Oc3ncnc4[nH]ncc34)cc2)c1 [Compound 1r, 1-(4-((1H-Pyrazolo[3,4-d]pyrimidin-4-yl)oxy)phenyl)-3-(5-methyl-2-nitrophenyl)urea] | > 80 |  | 
 | > 80 | 65.4 | > 80 | 5.52 | 10 | 71 | 234.5 to 237 |  |  | O=C(Nc1ccc(Oc2ncnc3[nH]ncc23)cc1)Nc1cccc(Br)c1 [Compound 1s, 1-(4-((1H-Pyrazolo[3,4-d]pyrimidin-4-yl)oxy)phenyl)-3-(3-bromophenyl)urea] | > 80 |  | 
 | > 80 | 75.2 | > 80 | > 80 | 28 | 89 | 249.9 to 250.6 |  |  | Cc1ccc(NC(=O)Nc2ccc(Oc3ncnc4[nH]ncc34)cc2)cc1C [Compound 1t, 1-(4-((1H-Pyrazolo[3,4-d]pyrimidin-4-yl)oxy)phenyl)-3-(3,4-dimethylphenyl)urea] | > 80 |  | 
 | > 80 | 13.2 | > 80 | 68.9 | 61 | 93 | 309.8 to 312 |  | 38.1 | Cn1ncc2c(Oc3ccc(NC(=O)Nc4cccc(Cl)c4)cc3)ncnc21 [Compound 1u, 1-(3-Chlorophenyl)-3-(4-((1-methyl-1H-pyrazolo[3,4-d]pyrimidin-4-yl)oxy)phenyl)urea] | > 80 |  | 

Structure (SMILES) | IC50 at 48 h (in vitro) [µM] | IC50 (HT-29) [µM] | IC50 (A375) [µM] | IC50 (A549) [µM] | IC50 (PC-3) [µM] | inhibition at 0.1 µM (BRAF^V600E; [2]) [%] | inhibition at 1 µM (BRAF^V600E; [3]) [%] | melting point [°C] | BRAF^V600E (%) inhibition at 1000 nM (BRAF^V600E; [3]) | IC50 (BRAF^V600E) [nM] | IC50 at 48 h [1] [µM] | fold improvement compared to Sorafenib, A549 (A549; A549, IC50 ratio to Sorafenib) [fold] | fold improvement in activity compared to Sorafenib, PC-3 (PC-3) [fold]
Cc1ccc(Cl)c(NC(=O)Nc2ccc(Oc3ncnc4[nH]ncc34)cc2)c1 [Compound 1f, 1-(4-((1H-Pyrazolo[3,4-d]pyrimidin-4-yl)oxy)phenyl)-3-(2-chloro-5-methylphenyl)urea] |  | 61.7 | 62.3 | 5.24 | 1.12 |  | 37 | 230.2 to 232.4 |  |  | > 80 | 2 | 12
O=C(Nc1ccc(Oc2ncnc3[nH]ncc23)cc1)Nc1cc(C(F)(F)F)ccc1Cl [Compound 1i, 1-(4-((1H-Pyrazolo[3,4-d]pyrimidin-4-yl)oxy)phenyl)-3-(2-chloro-5-(trifluoromethyl)phenyl)urea] |  | 62.4 | 26.9 | 60.8 | 1.12 | 52 | 83 | 239.2 to 240.3 |  |  | > 80 |  | 12
CNC(=O)c1cc(Oc2ccc(NC(=O)Nc3ccc(Cl)c(C(F)(F)F)c3)cc2)ccn1 [Sorafenib, reference compound] |  | 8.12 | 6.81 | 13.7 | 13.8 |  |  |  |  |  | 14.7 |  | 
